Experimental data as given in patent US8822407B2, “Preparation of conjugates comprising adenine derivatives and allergenic proteins and their use for specific immunotherapy of allengenic diseases” (Universita' Degli Studi di Firenze, priority 2010, dated 2014).

How the values were obtained:
[1] = tested on: purified BDCA4+ cells; assay: Cytokine production by purified BDCA4+ cells (plasmacytoid dendritic cells), ELISA; format: cell-based, human
Method: The preparation of purified BDCA4+ cells has been obtained in a similar way starting from MNC of buffy coats of the same 14 healthy donors. […] By positive selection 5×10^6 plasmacytoid dendritic cells (PDCs) are recovered, extensively washed with calcium and magnesium-free sterile PBS and seeded in complete medium plus 10% foetal calf serum in 24-flat bottomed plates at the concentration 1×10^6/ml. […] The plates are incubated for 36 hrs at 37° C. in 5% CO2 humidified atmosphere and the supernatants are collected after centrifugation at 1200 rpm, aliquoted and then stored at −20° C. up to the assay. […]
(§1) For the determination of cytokines and chemokines of the innate immunity, commercial ELISAs have been used: IL-12p40 (Cytoscreen, Biosource Int, Camarillo, Calif.), IFN-alfa (Cytoscreen), TNF-alfa (Cytoscreen), IL-10 (Pharmingen), IL-6 and CXCL10 (R&D System). 100 μl/well of single supernatants are incubated in flat bottomed plates as specified by the productors and the amounts of the single cytokines are expressed as pg/ml on the basis of a reference curve by using recombinant cytokines.

[2] = tested on: purified CD14+ cells; assay: Cytokine production by purified CD14+ cells (ELISA of supernatants, 36 hrs); format: cell-based, human; details: for IL-6 production / IL-10 production / IL-12p40 production / TNF-alfa production: Table A
Method: Circulating mononuclear cells (MNC) are isolated by density gradient (Ficoll-Hypaque) using buffy coats from 14 normal donors (Servizio Immunotrasfusionale e terapie cellulari, Azienda Ospedaliera Universitaria A. Meyer, Firenze). 200×10^6 MNC are separated by the use of a commercial kit (CD14 isolation kit, Miltenyi) by the addition of 400 μl anti-CD14 monoclonal antibody bound to iron beads followed by isolation on magnetic columns (LS column). 50×10^6 monocytes are recovered by positive selection and are extensively washed with calcium and magnesium-free sterile PBS and then seeded in complete medium plus 10% foetal calf serum in 24 flat bottomed plates at the concentration of 1×10^6/ml. […] The plates are incubated for 36 hrs at 37° C. in 5% CO2 humidified atmosphere and the supernatants are collected after centrifugation at 1200 rpm, aliquoted and then stored at −20° C. up to the assay. […]
as §1

[3] = target: T1, human TLR7 (Homo sapiens, UniProt Q9NYK1); assay: TLR7 activation, NF-kB luciferase reporter in transfected HEK293 cells; format: cell-based; details: human TLR7-encoding plasmid
T1 construct: expressed in transfected cells; host or cells: HEK293 (transient Nucleofection, Amaxa)
T1 sequence (Q9NYK1 27-1049): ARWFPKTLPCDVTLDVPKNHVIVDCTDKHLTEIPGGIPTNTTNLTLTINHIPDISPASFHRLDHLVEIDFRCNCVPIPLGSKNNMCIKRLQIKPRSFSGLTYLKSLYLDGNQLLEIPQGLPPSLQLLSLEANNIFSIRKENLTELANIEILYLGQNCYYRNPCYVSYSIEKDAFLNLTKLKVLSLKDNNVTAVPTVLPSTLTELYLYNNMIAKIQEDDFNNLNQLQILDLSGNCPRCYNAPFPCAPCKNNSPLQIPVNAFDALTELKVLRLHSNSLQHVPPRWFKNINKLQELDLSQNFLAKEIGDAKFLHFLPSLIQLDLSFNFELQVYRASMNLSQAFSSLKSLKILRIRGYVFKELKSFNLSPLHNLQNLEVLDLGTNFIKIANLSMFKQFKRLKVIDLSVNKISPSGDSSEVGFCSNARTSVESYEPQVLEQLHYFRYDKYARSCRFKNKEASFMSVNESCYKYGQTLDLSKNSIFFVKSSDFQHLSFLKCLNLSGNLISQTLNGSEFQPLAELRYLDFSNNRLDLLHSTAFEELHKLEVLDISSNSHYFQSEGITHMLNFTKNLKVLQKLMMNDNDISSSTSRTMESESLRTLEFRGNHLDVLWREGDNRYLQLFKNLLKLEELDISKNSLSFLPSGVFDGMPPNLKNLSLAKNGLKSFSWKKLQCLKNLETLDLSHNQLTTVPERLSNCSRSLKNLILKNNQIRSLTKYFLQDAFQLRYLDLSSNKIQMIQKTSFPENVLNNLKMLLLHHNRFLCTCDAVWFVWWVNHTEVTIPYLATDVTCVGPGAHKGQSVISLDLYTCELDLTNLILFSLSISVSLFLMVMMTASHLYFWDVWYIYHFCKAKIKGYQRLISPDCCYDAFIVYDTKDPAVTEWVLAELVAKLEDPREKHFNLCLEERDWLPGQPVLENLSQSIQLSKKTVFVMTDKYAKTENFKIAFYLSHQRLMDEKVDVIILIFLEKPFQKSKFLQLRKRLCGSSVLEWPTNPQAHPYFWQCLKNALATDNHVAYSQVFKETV
Method: HEK293 cells are detached by trypsin from the plastic surface of the culture bottle, extensively washed with calcium and magnesium-free PBS, counted and adjusted at the concentration 1×10^6 cells/tube in polypropylene V-bottomed tubes. After the final wash, the cells are pelleted and 100 μl transfection buffer (Amaxa) is added together with […], TLR7, TLR8 or TLR9-encoding and ELAM-1 promoter NF-kB luciferase reporter plasmids. The mixture thus obtained is transferred in special cuvettes and transient transfection is obtained in a special apparatus which is able to directly introduce genetic material into the nucleus (Nucleofection®, Amaxa GmbH). The cells are then recovered and cultured at 1×10^5/ml in 48-flat bottomed plates in E-MEM medium plus 5% foetal calf serum for 18 hrs. […] Finally the luciferase activity is measured in the cellular lysates by a commercial kit (Promega).

[4] = Table C, Donor #1, R-848, dose not printed in table (2 μg/ml elsewhere in the source)
[5] = Table C, Donor #2, R-848 (2 μg/ml)
[6] = Table F, Donor #1, dose 2 μg/ml
[7] = Table F, Donor #2, dose 2 μg/ml
[8] = Table C, Donor #1, dose 0.085 μg/ml
[9] = Table C, Donor #1, dose 0.6 μg/ml
[10] = Table C, Donor #1, dose 2.5 μg/ml
[11] = Table C, Donor #1, dose 10 μg/ml
[12] = Table C, Donor #2, dose 0.085 μg/ml
[13] = Table C, Donor #2, dose 0.6 μg/ml
[14] = Table C, Donor #2, dose 2.5 μg/ml
[15] = Table C, Donor #2, dose 10 μg/ml

## CCOCc1nc2c(N)nc3ccccc3c2n1CC(C)(C)O [Conj R-848, reference compound]
[1]; [4]
  IFN-alfa production: 3154 pg/mL
  IL-6 production: 746 pg/mL
  IL-10 production: 1500 pg/mL
  TNF-alfa production: 10368 pg/mL
[1]; [5]
  IFN-alfa production: 6187 pg/mL
  IL-6 production: 308 pg/mL
  IL-10 production: 753 pg/mL
  TNF-alfa production: 20990 pg/mL
[1]; Table D, dose 2 μg/ml
  IFN-alfa production (mean ± SE): 5.6 ± 2.5 ng/mL
  IL-6 production (mean ± SE): 7.7 ± 2.6 ng/mL
  IL-10 production (mean ± SE): 1.0 ± 0.6 ng/mL
  TNF-alfa production (mean ± SE): 5.4 ± 1.4 ng/mL
[1]; [6]
  IFN-alfa production: 1131 pg/mL
  IL-6 production: 44302 pg/mL
  IL-10 production: 1864 pg/mL
  TNF-alfa production: 4832 pg/mL
[1]; [7]
  IFN-alfa production: 1605 pg/mL
  IL-6 production: 37603 pg/mL
  IL-10 production: 1305 pg/mL
  TNF-alfa production: 6898 pg/mL
[1]; text to Tables C and D
  cytokine production from BDCA4+ cells (in words): high levels of IFN-alfa, IL-10 and CXCL10
[2]; Table B, dose 2 μg/ml
  IL-6 production (mean ± SE): 45.8 ± 15.2 ng/mL
  IL-10 production (mean ± SE): 2.0 ± 0.5 ng/mL
  IL-12p40 production (mean ± SE): 16.9 ± 6.3 ng/mL
  TNF-alfa production (mean ± SE): 16.3 ± 4.9 ng/mL
[3]
  TLR7 activation (NF-κB luciferase) in transfected HEK293 cells: able to induce NF-κB expression

## Nc1nc(SCCCC(=O)ON2C(=O)CCC2=O)nc2c1nc(O)n2Cc1ccccc1 [SA-26E, 4-(6-Amino-9-benzyl-8-hydroxy-9H-purin-2-ylsulfanyl)-butyric acid 2,5-dioxo-pyrrolidin-1-yl ester]
[1]; 0.085 μg/ml concentration
  cytokine production from BDCA4+ cells (in words): completely inactive
[1]; [8]
  IFN-alfa production: 0 pg/mL
  IL-6 production: 0 pg/mL
  TNF-alfa production: 0 pg/mL
[1]; [9]
  IFN-alfa production: 179 pg/mL
  IL-6 production: 0 pg/mL
  IL-10 production: 0 pg/mL
  TNF-alfa production: 183 pg/mL
[1]; [10]
  IFN-alfa production: 179 pg/mL
  IL-6 production: 0 pg/mL
  IL-10 production: 0 pg/mL
  TNF-alfa production: 252 pg/mL
[1]; [11]
  IFN-alfa production: 486 pg/mL
  IL-6 production: 675 pg/mL
  IL-10 production: 896 pg/mL
  TNF-alfa production: 858 pg/mL
[1]; [12]
  IFN-alfa production: 0 pg/mL
  IL-6 production: 0 pg/mL
  IL-10 production: 0 pg/mL
  TNF-alfa production: 0 pg/mL
[1]; [13]
  IFN-alfa production: 669 pg/mL
  IL-6 production: 0 pg/mL
  IL-10 production: 0 pg/mL
  TNF-alfa production: 520 pg/mL
[1]; [14]
  IFN-alfa production: 2014 pg/mL
  IL-6 production: 760 pg/mL
  TNF-alfa production: 1157 pg/mL
[1]; [15]
  IFN-alfa production: 3589 pg/mL
  IL-6 production: 1439 pg/mL
  IL-10 production: 750 pg/mL
  TNF-alfa production: 3405 pg/mL
[1]; text to Tables C and D
  cytokine production from BDCA4+ cells (in words): intermediate effect
[2]; 0.085 μg/ml soluble SA-26E (amount present in Conj-5, -6, -7 and -8)
  cytokine production from purified CD14+ cells (in words): not able to stimulate the production of any cytokine
[2]; Donor #1, dose 0.085 μg/ml
  IL-6 production: 0 pg/mL
  IL-10 production: 0 pg/mL
  IL-12p40 production: 0 pg/mL
  TNF-alfa production: 0 pg/mL
[2]; Donor #1, dose 0.6 μg/ml
  IL-6 production: 0 pg/mL
  IL-10 production: 124 pg/mL
  IL-12p40 production: 569 pg/mL
  TNF-alfa production: 345 pg/mL
[2]; Donor #1, dose 2.5 μg/ml
  IL-6 production: 11 pg/mL
  IL-10 production: 618 pg/mL
  IL-12p40 production: 863 pg/mL
[2]; Donor #1, dose 10 μg/ml
  IL-6 production: 2930 pg/mL
  IL-10 production: 609 pg/mL
  IL-12p40 production: 2500 pg/mL
  TNF-alfa production: 2123 pg/mL
[2]; Donor #2, dose 0.085 μg/ml
  IL-6 production: 0 pg/mL
  IL-10 production: 0 pg/mL
  IL-12p40 production: 0 pg/mL
  TNF-alfa production: 0 pg/mL
[2]; Donor #2, dose 0.6 μg/ml
  IL-6 production: 0 pg/mL
  IL-10 production: 0 pg/mL
  IL-12p40 production: 785 pg/mL
  TNF-alfa production: 466 pg/mL
[2]; Donor #2, dose 2.5 μg/ml
  IL-6 production: 4 pg/mL
  IL-12p40 production: 2464 pg/mL
  TNF-alfa production: 1267 pg/mL
[2]; Donor #2, dose 10 μg/ml
  IL-6 production: 163 pg/mL
  IL-10 production: 584 pg/mL
  IL-12p40 production: 4800 pg/mL
  TNF-alfa production: 3730 pg/mL
[2]; text to Tables A and B
  cytokine production from purified CD14+ cells (in words): intermediate effect
[3]
  TLR7 activation (NF-κB luciferase) in transfected HEK293 cells: completely inactive
